Measurements taken from patent publication US20220193042A1, “NITAZOXANIDE AND THIAZOLIDES FOR USE IN THE TREATMENT OF DISEASES ASSOCIATED WITH OXIDATIVE STRESS” (GENFIT, priority 2019, published 2022).

Columns and labels:
Hep G2 cells = experiment: Intracellular GSH detection (ThiolTracker Violet) in menadione-stressed Hep G2 cells; assay type: cell-based, human; settings: 1 μM TZ preincubated 1 hour, then 100 μM menadione for 2 hours
Procedure: Tizoxanide (Interchim; cat #RP253) was dissolved in DMF (Sigma; cat #227056). Menadione (Sigma; cat #M2518) and N-Acetylcysteine were dissolved (Sigma; cat #A9165) in water. Hep G2 cells (ECACC) were plated at a density of 20 000 cells par well into a 96-well microplate in 100 μl of DMEM (Gibco; cat #41965-039) supplemented with 1% P/S (Gibco; cat #15140-122), 1% glutamine(Gibco; cat #25030-024).The complete medium contained 10% SVF (Gibco; cat #10270-106). The next day, culture medium was removed and replaced by 100 μL of DMEM (Gibco; cat #31053-028) without Red Phenol and SVF but supplemented with 1% P/S (Gibco; cat #15140-122), 1% glutamine(Gibco; cat #25030-024). The serum deprived HepG2 were preincubated for 1 hour with TZ or N-Acetylcysteine (NAC) then exposed to Menadione (MND) for 2 hours. Compounds were dissolved in their respective vehicles a mentioned above and diluted in the deprived culture medium. […] The cellular level of reduced glutathione was subsequently monitored using the ThiolTracker Violet dye (Invitrogen, cat #T10096). Briefly, cells were washed two times with DPBS (Invitrogen, Cat #14287-080) then incubated for 30 min at 37° with 100 μl of prewarmed ThiolTracker Violet dye solution prepared in DPBS according the supplier 's instructions and fluorescence was measured (Ex:404 nm, Em: 526 nm)

Nrf2-ARE signaling = experiment: ARE Reporter - HepG2 cell line luciferase assay; assay type: cell-based, human; settings: 1 μM TZ, 18 h exposure, vs vehicle
Procedure: ARE Reporter—Hep G2 cells(BPS Bioscience, Inc., San Diego cat #60513) were cultured following manufacturer's instructions. After thawing (BPS thaw medium 1, cat #60187), cells were cultured in growth-medium (BPS growth medium 1K, cat #79533) and subsequently plated at a density of 40 000 cells par well in a 96-well microplate in 45 μl of assay medium (BPS thaw medium). TZ (Interchim; cat #RP253) & DL-Sulforaphane (Sigma; cat #S4441) were dissolved in DMSO and diluted into assay medium. 5 μl of 10× dilution were added on cells to reach a final concentration of 1 μM and 3 μM for TZ and DL-Sulforaphane (DL-Sulfo) respectively. After 18 h exposure, luciferase activity was determined. 50 μl of One-Step Luciferase assay system (BPS cat #60690) were added per well and after −15 min of rocking at room temperature, luminescence was measured using a luminometer.

Nrf2 target genes = experiment: Enrichment of Nrf2 target genes in hepatic transcriptome (RNAseq), CDAA/c NASH model; assay type: in vivo, C57Bl/6J mice; settings: NTZ+CDAA/c vs CDAA/c; Nrf2 target genes are 1.3% of whole identified transcriptome
Procedure: In the current study, the preventive effects of NTZ 100 mg/kg/day were assessed in a murine model. 6 week-old male C57Bl/6J mice were fed a control (CSAA) diet (n=8), CDAA+1% cholesterol diet (n=12), or CDAA+1% cholesterol diet supplemented with NTZ 100 mg/kg/day (n=8) for 12 weeks. The food was purchased from Ssniff® company (Soest, Germany). Nitazoxanide (Interchim, Ref #RQ550) was incorporated by Ssniff® into CDAA+1% chol diet in powder form to the required dose.
The body weight and the food intake were monitored twice per week. On the last day of treatment, mice were sacrificed after a 6 h fasting period. The liver was rapidly excised for transcriptomic and histological studies.
Upon measurement of RNA samples concentration by nanodrop, the quality was assessed using bioanalyser. […]
Reads were cleaned using Trimmomatic v.0.36 with the following parameters: SLIDINGWINDOW:5:20 LEADING:30 TRAILING:30 MINLEN:60.Then reads were aligned on the genome reference (Mus musculus GRCm38.90) with rnacocktail using hisat2 v.2.1.0 as aligner with default parameters. […]
To identify differentially expressed genes (DE genes), we used R (version 3.4.3) and the DESEa2 library (v. 1.18.1). […] Briefly, the count matrix produced by FeatureCounts was analyzed by the DESeqDataSetFromMatrixO function followed by the DEseq( ) function from the DESeq2 library. […]

| Structure (SMILES) | prevention of MND-induced reduction of cellular GSH (Hep G2 cells) | ARE-mediated luciferase activity (ARE-mediated transcription) (Nrf2-ARE signaling) | proportion of Nrf2-regulated genes among all differentially expressed genes (Nrf2 target genes) |
| --- | --- | --- | --- |
| O=C(Nc1ncc([N+](=O)[O-])s1)c1ccccc1O [TZ, Tizoxanide] | totally prevented | significant increase |  |
| CC(=O)Oc1ccccc1C(=O)Nc1ncc([N+](=O)[O-])s1 [NTZ, [2-[(5-nitro-1,3-thiazol-2-yl)carbamoyl]phenyl]ethanoate] |  |  | more than 8% |
